Measured values as given in PubChem BioAssay (NCI).
Several values for one entry are separate records, joined by “and”; a condition that tells them apart may be missing. Equal entries are not always repeated.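 Assay format: 96-well plates, 48-hour exposure. GI50 marks 50% less growth. TGI is the concentration that stops growth completely.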

Experiments:
Test in all cases: NCI-60 cell line screen, 48 h
[1] = test system: HCT-116 colon
[2] = test system: HCT-15 colon
[3] = test system: K-562 leukemia
[4] = test system: KM12 colon
[5] = test system: OVCAR-4 ovarian
[6] = test system: SR leukemia
[7] = test system: U251 CNS
[8] = test system: CCRF-CEM leukemia

**Q.** Which results are given for `Cc1ccc(C=NC23CC4CC(CC(C4)C2)C3)cc1`?
**A.** TGI [1]: > 100 µM; TGI [2]: > 100 µM; TGI [3]: > 100 µM; TGI [4]: > 100 µM; TGI [5]: > 100 µM; TGI [6]: > 100 µM; TGI [7]: > 100 µM

**Q.** With `Cc1ccccc1C(=O)Oc1ccc(OCc2ccccc2)cc1` as the compound, how does the TGI [8] read?
**A.** > 100 µM

**Q.** And the TGI [1]?
**A.** > 100 µM

**Q.** And the TGI [2]?
**A.** > 100 µM

**Q.** What about the TGI [3] of the same compound?
**A.** > 100 µM

**Q.** And the TGI [4]?
**A.** > 100 µM

**Q.** What about the TGI [5] of the same compound?
**A.** > 100 µM

**Q.** And the TGI [6]?
**A.** 68 µM

**Q.** And the TGI [7]?
**A.** > 100 µM

**Q.** With `OCC(O)C(O)C(O)c1nn(-c2ccccc2)c2nc3cc(Cl)c(Cl)cc3nc12` (centres undefined) as the compound, how does the TGI [8] read?
**A.** > 100 µM

**Q.** What about the TGI [1] of the same compound?
**A.** > 100 µM

**Q.** And the TGI [3]?
**A.** 44.1 µM

**Q.** And the TGI [5]?
**A.** > 100 µM

**Q.** What about the TGI [6] of the same compound?
**A.** > 100 µM

**Q.** What about the TGI [7] of the same compound?
**A.** > 100 µM

**Q.** For `CC1(C(=O)O)CCOc2ccccc21` (centres undefined), which TGI [8] is on record?
**A.** > 100 µM

**Q.** And the TGI [1]?
**A.** > 100 µM

**Q.** What about the TGI [2] of the same compound?
**A.** > 100 µM

**Q.** And the TGI [3]?
**A.** > 100 µM

**Q.** And the TGI [5]?
**A.** > 100 µM

**Q.** And the TGI [6]?
**A.** > 100 µM

**Q.** Which TGI [1] does the source give for `O=C1C(=O)N(c2nccs2)C(=O)C(=O)C1c1nc2ccccc2s1` here?
**A.** > 100 µM

**Q.** What about the TGI [2] of the same compound?
**A.** > 100 µM

**Q.** What about the TGI [4] of the same compound?
**A.** > 100 µM

**Q.** And the TGI [5]?
**A.** > 100 µM

**Q.** What about the TGI [7] of the same compound?
**A.** > 100 µM

**Q.** How did the TGI [8] turn out when `O=C(Nc1ccc(Br)cc1)C(=O)C(C(=O)c1ccccc1F)C1OC(=O)c2ccccc21` (centres undefined) was run?
**A.** > 100 µM

**Q.** And the TGI [1]?
**A.** 35.6 µM

**Q.** And the TGI [2]?
**A.** > 100 µM

**Q.** And the TGI [3]?
**A.** > 100 µM

**Q.** And the TGI [4]?
**A.** > 100 µM

**Q.** And the TGI [5]?
**A.** 76 µM

**Q.** What about the TGI [7] of the same compound?
**A.** 51.8 µM

**Q.** What does the source list for `CC(NC(=O)C(=O)N/N=C1\C[C@@H](c2ccccc2)Nc2ccccc21)c1ccccc1` (some centres undefined)?
**A.** TGI [1]: > 100 µM; TGI [4]: > 100 µM; TGI [5]: > 100 µM; TGI [7]: > 100 µM

**Q.** For `COc1nc2c(nc(N)n2C2OCC(O)C(O)C2O)c(=O)n1C` (centres undefined), which TGI [8] is on record?
**A.** > 100 µM

**Q.** What about the TGI [1] of the same compound?
**A.** > 100 µM

**Q.** And the TGI [3]?
**A.** > 100 µM

**Q.** And the TGI [4]?
**A.** > 100 µM

**Q.** What about the TGI [5] of the same compound?
**A.** > 100 µM

**Q.** And the TGI [6]?
**A.** > 100 µM

**Q.** What about the TGI [7] of the same compound?
**A.** > 100 µM

**Q.** Which results are given for `CCOC(=O)C1=C(Nc2ccc(Br)cc2)OC/C1=N\NC(=O)c1ccccc1O`?
**A.** TGI [8]: 34.3 µM; TGI [1]: > 62 µM; TGI [2]: > 65.3 µM; TGI [3]: 38.6 µM; TGI [4]: > 100 µM; TGI [5]: > 100 µM; TGI [6]: 18.4 µM; TGI [7]: > 100 µM

**Q.** Which TGI [1] does the source give for `CCOC(=O)c1ccc(N2C(=O)Cc3ccccc3C2=O)cc1` here?
**A.** > 100 µM

**Q.** What about the TGI [2] of the same compound?
**A.** > 100 µM

**Q.** What about the TGI [3] of the same compound?
**A.** > 100 µM

**Q.** And the TGI [4]?
**A.** > 100 µM

**Q.** And the TGI [6]?
**A.** > 100 µM

**Q.** And the TGI [7]?
**A.** > 100 µM

**Q.** Which TGI [8] does the source give for `CC(C)CC12CC3CCC(CNC1=O)C32C` (centres undefined) here?
**A.** > 100 µM

**Q.** What about the TGI [1] of the same compound?
**A.** > 100 µM

**Q.** And the TGI [3]?
**A.** > 100 µM

**Q.** And the TGI [4]?
**A.** > 100 µM

**Q.** What about the TGI [5] of the same compound?
**A.** > 100 µM

**Q.** And the TGI [6]?
**A.** > 100 µM

**Q.** And the TGI [7]?
**A.** > 100 µM

**Q.** How did the TGI [8] turn out when `CC(=O)/C=C1\CC(=O)Nc2ccccc2N1` was run?
**A.** > 100 µM

**Q.** And the TGI [1]?
**A.** > 100 µM

**Q.** And the TGI [2]?
**A.** > 100 µM

**Q.** What about the TGI [3] of the same compound?
**A.** > 100 µM

**Q.** And the TGI [4]?
**A.** > 100 µM

**Q.** What about the TGI [5] of the same compound?
**A.** > 100 µM

**Q.** And the TGI [6]?
**A.** > 100 µM

**Q.** What about the TGI [7] of the same compound?
**A.** > 100 µM

**Q.** How did the TGI [8] turn out when `O=C(N/C(=C\c1ccc(/C=C(\NC(=O)c2ccccc2)c2nc3ccccc3s2)cc1)c1nc2ccccc2s1)c1ccccc1` was run?
**A.** 5.28 µM

**Q.** And the TGI [1]?
**A.** 30.9 µM

**Q.** And the TGI [2]?
**A.** 16 µM

**Q.** What about the TGI [3] of the same compound?
**A.** > 100 µM

**Q.** What about the TGI [4] of the same compound?
**A.** 22.6 µM

**Q.** What about the TGI [5] of the same compound?
**A.** 19.6 µM

**Q.** What about the TGI [7] of the same compound?
**A.** 6.2 µM

**Q.** Which GI50 [8] does the source give for `CC(C)C(=O)[O-].CC(C)C(=O)[O-].N.N.N.N.[Co+3].[O-][Cl+3]([O-])([O-])[O-]` here?
**A.** > 100 µM

**Q.** What about the TGI [8] of the same compound?
**A.** > 100 µM

**Q.** And the GI50 [1]?
**A.** > 100 µM

**Q.** What about the TGI [1] of the same compound?
**A.** > 100 µM

**Q.** And the GI50 [2]?
**A.** > 100 µM

**Q.** What about the TGI [2] of the same compound?
**A.** > 100 µM

**Q.** And the GI50 [3]?
**A.** > 100 µM

**Q.** What about the TGI [3] of the same compound?
**A.** > 100 µM

**Q.** What about the GI50 [4] of the same compound?
**A.** > 100 µM

**Q.** And the TGI [4]?
**A.** > 100 µM

**Q.** What about the GI50 [5] of the same compound?
**A.** > 100 µM

**Q.** What about the TGI [5] of the same compound?
**A.** > 100 µM

**Q.** And the GI50 [7]?
**A.** > 100 µM

**Q.** And the TGI [7]?
**A.** > 100 µM

**Q.** What does the source list for `N#Cc1ccc(Oc2cccc(Oc3ccccc3)c2)cc1C#N`?
**A.** TGI [8]: > 100 µM; TGI [1]: > 100 µM; TGI [3]: > 100 µM; GI50 [4]: > 100 µM; TGI [4]: > 100 µM; TGI [5]: > 100 µM; TGI [7]: > 100 µM

**Q.** Which TGI [8] does the source give for `O=c1cccccc1[O-].O=c1cccccc1[O-].O=c1cccccc1[O-].[Ce+3]` here?
**A.** > 100 µM

**Q.** What about the TGI [1] of the same compound?
**A.** 54.3 µM

**Q.** And the TGI [2]?
**A.** > 100 µM

**Q.** What about the TGI [3] of the same compound?
**A.** > 100 µM

**Q.** And the TGI [4]?
**A.** > 100 µM

**Q.** And the TGI [5]?
**A.** 76.7 µM

**Q.** What about the GI50 [7] of the same compound?
**A.** 18.3 µM

**Q.** What about the TGI [7] of the same compound?
**A.** 93.6 µM

**Q.** Which results are given for `NCc1c(C(N)=O)ncn1Cc1ccccc1`?
**A.** TGI [8]: > 100 µM; TGI [1]: > 100 µM; TGI [2]: > 100 µM; TGI [3]: > 100 µM; TGI [5]: > 100 µM; TGI [7]: > 100 µM

**Q.** What does the source list for `CCn1c(=O)c2ccccc2n2c(=O)c3cc4ccccc4cc3nc12`?
**A.** TGI [8]: > 100 µM; TGI [1]: > 100 µM; TGI [2]: > 100 µM; TGI [3]: > 100 µM; TGI [4]: > 100 µM; TGI [7]: > 100 µM

**Q.** Which results are given for `CCN(CC)c1ccc(N=C2C=C(Cl)C(=O)c3ncccc32)c(C)c1`?
**A.** TGI [8]: > 100 µM; TGI [1]: 11.6 µM; TGI [2]: 20.8 µM; TGI [3]: 11.1 µM; TGI [5]: 18.3 µM; TGI [7]: 18 µM

**Q.** With `CS(=O)(=O)N(CCC#N)c1ccc(C=O)cc1` as the compound, how does the TGI [1] read?
**A.** > 100 µM

**Q.** What about the TGI [2] of the same compound?
**A.** > 100 µM

**Q.** And the TGI [3]?
**A.** > 100 µM

**Q.** What about the TGI [4] of the same compound?
**A.** > 100 µM

**Q.** What about the TGI [5] of the same compound?
**A.** > 100 µM

**Q.** And the TGI [6]?
**A.** > 100 µM

**Q.** And the TGI [7]?
**A.** > 100 µM

**Q.** How did the TGI [8] turn out when `CC(=O)[O-].[Zn].c1ccc(/C(=N\Nc2ccccn2)c2ccccn2)cc1` was run?
**A.** 0.22 µM and 1.22 µM

**Q.** What about the TGI [1] of the same compound?
**A.** 1.26 µM

**Q.** What about the TGI [2] of the same compound?
**A.** 11.6 µM

**Q.** And the TGI [3]?
**A.** 2.35 µM

**Q.** And the TGI [5]?
**A.** 18.1 µM

**Q.** What about the GI50 [7] of the same compound?
**A.** 0.482 µM

**Q.** And the TGI [7]?
**A.** 1.88 µM

**Q.** `CC(=O)OC1CCC2C(=CCC3C2(C)C(=O)CC2(C)C(C4(C)OC(C(C)C)=CC4=O)C(O)CC32C)C1(C)C` (centres undefined) was tested. Which TGI [8] did it give?
**A.** 56.5 µM

**Q.** And the TGI [1]?
**A.** > 10 µM

**Q.** And the TGI [2]?
**A.** > 100 µM

**Q.** What about the TGI [3] of the same compound?
**A.** > 100 µM

**Q.** And the TGI [4]?
**A.** > 10 µM

**Q.** And the TGI [6]?
**A.** 72.5 µM

**Q.** What about the TGI [7] of the same compound?
**A.** > 100 µM
